The source made the active and inactive calls. The rule behind the calls is not given here.
Legend:
NSC [1] = assay: Induction of differentiation of Sprague-Dawley rat embryo cortex NSC assessed as TUJ1-positive neurons at 5 uM after 4 days by immunostaining method relative to DMSO-treated control; format: functional
NSC [2] = assay: Neuroprotective activity against Sprague-Dawley rat embryo cortex NSC assessed as reduction of bax mRNA at 5 to 10 uM after 2 days by RT-PCR method relative to DMSO-treated control; format: functional, cell-based
NSC [3] = assay: Neuroprotective activity against Sprague-Dawley rat embryo cortex NSC assessed as reduction of bcl2 mRNA at 5 to 10 uM after 2 days by RT-PCR method relative to DMSO-treated control; format: functional, cell-based
NSC [4] = assay: Neuroprotective activity against Sprague-Dawley rat embryo cortex NSC assessed as […] of bcl2 to bax at 5 to 10 uM after 2 days by RT-PCR method relative to DMSO-treated control; format: functional, cell-based
NSC [5] = assay: Cytotoxicity against Sprague-Dawley rat embryo cortex NSC assessed as shrinkage and rounding up of cells at 20 to 50 uM after 2 days by microscopy relative to DMSO-treated control in presence of EGF and FGF2; format: cell-based; conditions: 48 h
NSC [6] = assay: Cytotoxicity against Sprague-Dawley rat embryo cortex NSC assessed as cell viability at 1 to 50 uM after 2 days by MTT assay relative to DMSO-treated control; format: cell-based; conditions: 48 h
NSC [7] = assay: Antiproliferative activity against Sprague-Dawley rat embryo cortex NSC assessed as reduction in neurosphere volume at 5 to 10 uM after 5 days by neurosphere growth assay relative to DMSO-treated control in presence of EGF and FGF2; format: functional, cell-based
NSC [8] = assay: Inhibition of astrocytogenesis of Sprague-Dawley rat embryo cortex NSC assessed as downregulation of hes1 mRNA expression after 4 days by RT-PCR method relative to DMSO-treated control; format: functional, cell-based
NSC [9] = assay: Inhibition of astrocytogenesis of Sprague-Dawley rat embryo cortex NSC assessed as downregulation of notch1 mRNA expression after 4 days by RT-PCR method relative to DMSO-treated control; format: functional, cell-based
NSC [10] = assay: Inhibition of astrocytogenesis of Sprague-Dawley rat embryo cortex NSC assessed as repression of gfap mRNA expression after 4 days by RT-PCR method relative to DMSO-treated control; format: functional, cell-based
NSC [11] = assay: Induction of neurogenesis of Sprague-Dawley rat embryo cortex NSC assessed as increase in neuroD mRNA expression after 4 days by RT-PCR method relative to DMSO-treated control; format: functional, cell-based
NSC [12] = assay: Induction of neurogenesis of Sprague-Dawley rat embryo cortex NSC assessed as increase in beta3 tubulin mRNA expression after 4 days by RT-PCR method relative to DMSO-treated control; format: functional, cell-based
NSC [13] = assay: Induction of neurogenesis of Sprague-Dawley rat embryo cortex NSC assessed as effect on morphology at 10 uM after 4 days by DAPI-based phase-contrast microscopy relative to DMSO-treated control; format: functional, cell-based
NSC [14] = assay: Induction of neurogenesis of Sprague-Dawley rat embryo cortex NSC assessed as increase in beta3 tubulin mRNA expression at 5 uM after 4 days by RT-PCR method relative to DMSO-treated control; format: functional
NSC [15] = assay: Neuroprotective activity against Sprague-Dawley rat embryo cortex NSC assessed as reduction of bax mRNA at 10 uM after 2 days by RT-PCR method relative to DMSO-treated control; format: functional, cell-based
NSC [16] = assay: Neuroprotective activity against Sprague-Dawley rat embryo cortex NSC assessed as reduction of bcl2 mRNA at 10 uM after 2 days by RT-PCR method relative to DMSO-treated control; format: functional, cell-based
NSC [17] = assay: Neuroprotective activity against Sprague-Dawley rat embryo cortex NSC assessed as […] of bcl2 to bax at 10 uM after 2 days by RT-PCR method relative to DMSO-treated control; format: functional, cell-based
NSC [18] = assay: Cytotoxicity against Sprague-Dawley rat embryo cortex NSC assessed as effect on morphology at 10 uM after 4 days by DAPI-based phase-contrast microscopy relative to DMSO-treated control; format: cell-based; conditions: 96 h

Row | Compound | fold change (FC) (NSC [1]) | also measured
1 | OC(CNc1ccccc1)Cn1c2ccc(Br)cc2c2cc(Br)ccc21 (stereo not drawn) | 1.47 | –
2 | COc1cccc(NCC(Cn2c3ccc(Br)cc3c3cc(Br)ccc32)OC)c1 (stereo not drawn) | 0.96 | –
3 | COc1cccc(NCC(F)Cn2c3ccccc3c3ccccc32)c1 (stereo not drawn) | 1.07 | –
4 | COc1cccc(N(C)CC(O)Cn2c3ccc(Br)cc3c3cc(Br)ccc32)c1 (stereo not drawn) | 1.42 | –
5 | COc1cccc(N(CC(=O)Cn2c3ccc(Br)cc3c3cc(Br)ccc32)S(=O)(=O)c2ccc(C)cc2)c1 | 0.52 | –
6 | COc1cccc(NCC(Cn2c3ccccc3c3ccccc32)OC(C)=O)c1 (stereo not drawn) | 0.39 | –
7 | COc1cccc(N(CC(O)Cn2c3ccc(Br)cc3c3cc(Br)ccc32)S(=O)(=O)c2ccc(C)cc2)c1 (stereo not drawn) | 1.52 | Activity (NSC [2]): Active; Activity (NSC [3]): Active; Activity (NSC [4]): Active; Activity (NSC [5]): Non-toxic; Activity (NSC [6]): Non-toxic; Activity (NSC [7]): Active; inhibition (NSC [8]): Dose-dependent effect; inhibition (NSC [9]): Dose-dependent effect; inhibition (NSC [10]): Dose-dependent effect; Activity (NSC [11]): Dose-dependent effect; Activity (NSC [12]): Dose-dependent effect; Activity (NSC [13]): Active; fold change (FC) (NSC [14]): 1.43
8 | COc1cccc(OCC(F)Cn2c3ccc(Br)cc3c3cc(Br)ccc32)c1 (stereo not drawn) | 0.87 | –
9 | COc1cccc(N(Cc2ccccc2)CC(F)Cn2c3ccc(Br)cc3c3cc(Br)ccc32)c1 (stereo not drawn) | 0.58 | –
10 | COc1cccc(N(CC(Cn2c3ccc(Br)cc3c3cc(Br)ccc32)OC)S(=O)(=O)c2ccc([N+](=O)[O-])cc2)c1 (stereo not drawn) | 0.92 | –
11 | COc1cccc(N(CC(Cn2c3ccc(Br)cc3c3cc(Br)ccc32)OC(C)=O)S(=O)(=O)c2ccc(C)cc2)c1 (stereo not drawn) | 0.65 | –
12 | COc1cccc(NCC(F)Cn2c3ccc(Br)cc3c3cc(Br)ccc32)c1 (stereo not drawn) | 1.16 | Activity (NSC [15]): inactive; Activity (NSC [16]): Active; Activity (NSC [17]): Active; Activity (NSC [5]): Toxic; Activity (NSC [6]): Non-toxic
13 | COc1cccc(NCC(Cn2c3ccc(Br)cc3c3cc(Br)ccc32)OC(C)=O)c1 (stereo not drawn) | 0.63 | –
14 | COc1cccc(NCC(Cn2c3ccc(Br)cc3c3cc(Br)ccc32)OC(=O)OC(C)(C)C)c1 (stereo not drawn) | 1.25 | –
15 | COc1cccc(N(CC(O)Cn2c3ccc(Br)cc3c3cc(Br)ccc32)C(C)=O)c1 (stereo not drawn) | 1.25 | –
16 | OC(CNc1ccc2c(c1)OCO2)Cn1c2ccc(Br)cc2c2cc(Br)ccc21 (stereo not drawn) | 0.88 | –
17 | COc1cccc(N(Cc2ccccc2)CC(O)Cn2c3ccc(Br)cc3c3cc(Br)ccc32)c1 (stereo not drawn) | 0.57 | –
18 | COc1cccc(NCC(O)Cn2c3ccc(Br)cc3c3cc(Br)ccc32)c1 (stereo not drawn) | 1.16 | –
19 | COc1cccc(NC/C(Cn2c3ccc(Br)cc3c3cc(Br)ccc32)=N\O)c1 | 1.13 | –
20 | OC(CNc1ccc(Cl)cc1)Cn1c2ccc(Br)cc2c2cc(Br)ccc21 (stereo not drawn) | 1.29 | –
21 | COc1cccc(NCC(F)Cn2c3ccccc3c3cc(Br)ccc32)c1 (stereo not drawn) | 0.86 | –
22 | COc1cccc(OCC(O)Cn2c3ccc(Br)cc3c3cc(Br)ccc32)c1 (stereo not drawn) | 1.12 | –
23 | COc1cccc(NCC(=O)Cn2c3ccc(Br)cc3c3cc(Br)ccc32)c1 | 1.02 | –
24 | COc1cccc(N(CC(Cn2c3ccc(Br)cc3c3cc(Br)ccc32)OC)S(=O)(=O)c2ccc(C)cc2)c1 (stereo not drawn) | 0.73 | –
25 | COc1ccc(NCC(O)Cn2c3ccc(Br)cc3c3cc(Br)ccc32)cc1OC (stereo not drawn) | 1.67 | Activity (NSC [18]): Toxic; fold change (FC) (NSC [14]): 1.47
26 | Cc1ccc(NCC(O)Cn2c3ccc(Br)cc3c3cc(Br)ccc32)cc1 (stereo not drawn) | 1.88 | Activity (NSC [18]): Toxic
27 | COc1ccc(NCC(O)Cn2c3ccc(Br)cc3c3cc(Br)ccc32)cc1 (stereo not drawn) | 1.17 | –
